# Data from patent publication US20040224880A1, “Regulation of gastric acid secretion by inwardly rectifying k+ channels” (Beth Israel Deaconess Medical Center, Inc., priority 2001, published 2004).
# Entries after “also recorded” stand apart in the source; their conditions may differ. Where two headings read alike, the source gives them in different places.
# Assays:
# [1] = test system: bullfrog gastric mucosa; experiment: Acid secretion of frog (bullfrog) gastric mucosa stimulated with histamine/carbachol or forskolin; assay type: cell-based; settings: for Rate of decline in acid secretion: from the linear portion of the inhibition curve, 1 mM cimetidine, 10 mM NH4Cl, 2 mM KCN; for effect of 0.5 and 1 mM barium on acid secretion (in words): up to 3 hr; for acid secretion with 10 mM imidazole, 3 hr: 10 mM nutrient imidazole (5 mM Iz), pH 7.1, 3 hr
# [2] = test system: bullfrog gastric mucosa; assay type: cell-based
# Description: FIG. 1B Electrophysiology in the bullfrog gastric mucosa. […] Removal of NH4Cl was followed by a complete recovery of R within 30 min. Data were obtained from 21 experiments and are expressed as the mean±SEM.
# FIG. 1C Electrophysiology in the bullfrog gastric mucosa. […] Removal of NH4Cl was followed by a complete recovery of PD within 30 min. Data were obtained from 21 experiments and are expressed as the mean±SEM.
# [3] = test system: bullfrog gastric mucosa
# [4] = Time 90″: after 90 min stimulation with histamine/carbachol, start of incubation with 1 mM cimetidine, 0.3 mM omeprazole, 10 mM NH4Cl or 2 mM KCN
# [5] = Time 120″, 1 mM cimetidine or 0.3 mM omeprazole added at 90 min
# [6] = Time 150″, 1 mM cimetidine or 0.3 mM omeprazole added at 90 min
# [7] = blocker first (0.5-5 mM barium, 1-10 mM TEA, 10-100 μM tolbutamide, 10 μM clotrimazole, imidazole, 100 μM bumetamide, amiloride, 1 mM oubain, 0.3 mM DIDS), then 10 mM NH4Cl, within 30 min
# [8] = blocker first, then 10 mM NH4Cl, within 30 min
# [9] = nutrient solution, vs control tissues, imidazole 100 μM Iz (200 μM nutrient), TEA 1-10 mM, tolbutamide 10-100 μM, clotrimazole 10 μM, bumetamide 100 μM, amiloride, oubain 1 mM, DIDS 0.3 mM, KCN, KCl 2 mM, methylamine
# [10] = 10 mM NH4Cl within 30 min, 0.5, 1, 5 mM barium, TEA, tolbutamide, clotrimazole, vs control tissues
# [11] = 10 mM NH4Cl within 30 min, barium, TEA, tolbutamide, clotrimazole, vs control tissues
# [12] = blocker first (0.5 and 1 mM barium, TEA, tolbutamide, clotrimazole), then 10 mM NH4Cl, within 30 min
structure (smiles),measurement,setting,value
"CN/C(=N/CCSCc1nc[nH]c1C)NC#N [Cimetidine, cimetidine]",Acid secretion,[1]; [4],5.59 ± 0.13 μEq/h · cm^2
same,Acid secretion,[1]; [5],3.51 ± 0.21 μEq/h · cm^2
same,Acid secretion,[1]; [6],0.83 ± 0.22 μEq/h · cm^2
same,Rate of decline in acid secretion,[1]; 0.3 mM omeprazole,−0.07935 (μEq/h · cm^2)/min
O=S(=O)(O)c1cc(N=C=S)ccc1C=Cc1ccc(N=C=S)cc1S(=O)(=O)O [DIDS],acid secretion with DIDS,"[1]; 0.3 mM DIDS, 60 min, from 5.25±0.12",2.29±0.18 μEq/hr cm^2
same,acid secretion after 10 mM NH4Cl added to tissues treated with the blocker,[1]; [7],0 μEq/hr cm^2
same,effect of 10 mM NH4Cl on acid secretion of tissues treated with the blocker (in words),[1]; [8],declined; also recorded: immediately reduced acid secretion to zero
same,effect on stimulated acid secretion (in words),[1]; [9],"approximately one half of the initial rate; also recorded: partially, but not completely, inhibited"
"[Cl-].[K+] [KCl, Potassium chloride]",effect on stimulated acid secretion (in words),[1],little effect on acid secretion
"COc1ccc2[nH]c([S+]([O-])Cc3ncc(C)c(OC)c3C)nc2c1 (stereo not drawn) [Omeprazole, omeprazole]",Acid secretion,[1]; [4],5.45 ± 0.30 μEq/h · cm^2
same,Acid secretion,[1]; [5],2.03 ± 0.21 μEq/h · cm^2
same,Acid secretion,[1]; [6],0.30 ± 0.10 μEq/h · cm^2
same,Rate of decline in acid secretion,[1]; 0.3 mM omeprazole,−0.09034 (μEq/h · cm^2)/min
"CC[N+](CC)(CC)CC [TEA, tetraethylammonium]",PD after 10 mM NH4Cl added to tissues treated with the blocker (in words),[2],increase in PD
same,R after 10 mM NH4Cl added to tissues treated with the blocker (in words),[2],R increased in all tissues; also recorded: increase in R
same,effect on potential difference (PD) of stimulated tissues (in words),[2],no effect
same,effect on resistance (R) of stimulated tissues (in words),[2],no effect on R; also recorded: not significantly different from that of control tissues
same,acid secretion after 10 mM NH4Cl added to tissues treated with the blocker,[1],0 μEq/hr cm^2
same,effect of 10 mM NH4Cl on acid secretion of tissues treated with the blocker (in words),[1],abolished
same,effect on stimulated acid secretion (in words),[1],no effect on stimulated acid secretion; also recorded: no significant decline
N=C(N)NC(=O)c1nc(Cl)c(N)nc1N [amiloride],acid secretion after 10 mM NH4Cl added to tissues treated with the blocker,[1]; [7],0.188±0.140 μEq/hr cm^2
same,effect of 10 mM NH4Cl on acid secretion of tissues treated with the blocker (in words),[1]; [8],declined
same,effect on stimulated acid secretion (in words),[1]; [9],unchanged; also recorded: little effect on stimulated acid secretion; also recorded: no significant reduction in acid secretion
"N [ammonia (NH3), ammonia]",concentration of ammonia (NH3) that completely inhibits acid secretion within 30 min,"[1]; NH3 present in 10 mM NH4Cl at pH 7.2, basolateral exposure",92.5 µM
same,NH3 lost from the nutrient solution,[3]; 10 mM,61.46 µM
same,luminal NH3 concentration after 30 min,"[3]; 30 min, 10 mM",0.00133 ± 0.00133 µM
same,nutrient NH3 concentration at 30 min,"[3]; 30 min, 10 mM",538.3±6.7
[Ba] [barium],effect on resistance (R) of stimulated tissues (in words),[2]; [10],increased significantly; also recorded: significant increase in R
same,effect on potential difference (PD) of stimulated tissues (in words),[2]; [11],unaffected; also recorded: little to no influence on PD; also recorded: not significantly different from that of control tissues
same,R after 10 mM NH4Cl added to tissues treated with the blocker (in words),[2]; [12],R increased similar to that of control tissues; also recorded: increase in R
same,PD after 10 mM NH4Cl added to tissues treated with the blocker (in words),[2]; [8],PD increased in all groups; also recorded: increase in PD
same,acid secretion with 0.5 mM barium,"[1]; 0.5 mM barium, 3 hr (180 min), from 5.23±0.29",4.12±0.38 μEq/hr cm^2
same,acid secretion with 1 mM barium,"[1]; 1 mM barium, 3 hr (180 min), from 5.35±0.22",4.20±0.21 μEq/hr cm^2
same,acid secretion with 5 mM barium,"[1]; 5 mM barium, 3 hr (180 min), from 5.19±0.22",2.89±0.33 μEq/hr cm^2
same,reduction of acid secretion compared to control tissues,"[1]; 5 mM barium, by 3 hr",44%
same,effect of 5 mM barium on acid secretion (in words),"[1]; 5 mM barium, vs control tissues",significantly (P=0.0085) different from control tissues; also recorded: significantly different from that of control tissues
same,effect of 0.5 and 1 mM barium on acid secretion (in words),[1]; vs control tissues,not different from that of control tissues; also recorded: inhibition of acid secretion does not occur
same,effect of 0.5 and 1 mM barium on acid secretion (in words),"[1]; vs control tissues, listed as Barium",not significantly different from that of control tissues
same,acid secretion after 10 mM NH4Cl added to tissues treated with the blocker,[1]; [7],0 μEq/hr cm^2
same,effect of 10 mM NH4Cl on acid secretion of tissues treated with the blocker (in words),[1]; [8],abolished
CCCCNc1cc(C(=O)O)cc(S(N)(=O)=O)c1Oc1ccccc1 [bumetamide],acid secretion after 10 mM NH4Cl added to tissues treated with the blocker,[1]; [7],0.645±0.278 μEq/hr cm^2
same,effect of 10 mM NH4Cl on acid secretion of tissues treated with the blocker (in words),[1]; [8],declined
same,effect on stimulated acid secretion (in words),[1]; [9],unchanged; also recorded: little effect on stimulated acid secretion; also recorded: no significant reduction in acid secretion
Clc1ccccc1C(c1ccccc1)(c1ccccc1)n1ccnc1 [clotrimazole],effect on resistance (R) of stimulated tissues (in words),[2]; [10],no effect; also recorded: not significantly different from that of control tissues
same,effect on potential difference (PD) of stimulated tissues (in words),[2]; [11],no effect
same,R after 10 mM NH4Cl added to tissues treated with the blocker (in words),[2]; [12],increase in R
same,PD after 10 mM NH4Cl added to tissues treated with the blocker (in words),[2]; [8],increase in PD
same,acid secretion after 10 mM NH4Cl added to tissues treated with the blocker,[1]; [7],0 μEq/hr cm^2
same,effect of 10 mM NH4Cl on acid secretion of tissues treated with the blocker (in words),[1]; [8],abolished
same,effect on stimulated acid secretion (in words),[1]; [9],no effect on stimulated acid secretion; also recorded: no significant decline
c1c[nH]cn1 [imidazole],acid secretion with 100 μM imidazole,"[1]; 100 μM Iz, 3 hr (180 min), from 5.47±0.26",4.86±0.29 μEq/hr cm^2
same,"acid secretion with 10 mM imidazole, 30 min","[1]; 10 mM imidazole (5 mM Iz, 5 mM Iz+), 30 min, from 6.60±0.43",4.60±0.43 μEq/hr cm^2
same,"acid secretion with 10 mM imidazole, 3 hr",[1]; from 6.60±0.43,4.06±0.46 μEq/hr cm^2
same,"acid secretion with 10 mM imidazole, 3 hr","[1]; from 6.60±0.43, listed as Iz",4.03 μEq/hr cm^2
same,acid secretion after 10 mM NH4Cl added to tissues treated with the blocker,[1]; [7],0±0 μEq/hr cm^2
same,effect of 10 mM NH4Cl on acid secretion of tissues treated with the blocker (in words),[1]; [8],inhibited completely; also recorded: inhibited acid secretion immediately
same,effect on stimulated acid secretion (in words),[1]; [9],no effect on acid secretion; also recorded: not significantly different from that of control tissues
same,effect on stimulated acid secretion (in words),"[1]; nutrient solution, vs control tissues, imidazole 100 μM Iz (200 μM nutrient), TEA 1-10 mM, tolbutamide 10-100 μM, clotrimazole 10 μM, bumetamide 100 μM, amiloride, oubain 1 mM, DIDS 0.3 mM, KCN, KCl 2 mM, methylamine, listed as Iz",not significantly different from that of control tissues
CN [methylamine],acid secretion after methylamine washed from the nutrient solution,[1],3.74±0.41 μEq/hr cm^2
same,"acid secretion after washout, % of the starting level",[1],60%
same,acid secretion with methylamine,[1],0.081±0.056 μEq/hr cm^2
same,effect on stimulated acid secretion (in words),[1],rapidly inhibits acid secretion
same,least (minimum) concentration required for complete inhibition of acid secretion within 30 min,[1],50 mM
same,flux rate of methylamine in inhibited tissues,[3],0.601±0.114 μM/h cm^2
same,flux rate of methylamine in stimulated tissues,[3],2.25±0.088 μM/h cm^2
C[C@@H]1O[C@@H](O[C@H]2C[C@@H](O)[C@]3(CO)[C@H]4[C@H](O)C[C@]5(C)[C@@H](C6=CC(=O)OC6)CC[C@]5(O)[C@@H]4CC[C@]3(O)C2)[C@H](O)[C@H](O)[C@H]1O [oubain],effect on stimulated acid secretion (in words),[1],unchanged; also recorded: little effect on stimulated acid secretion; also recorded: no significant reduction in acid secretion
same,acid secretion after 10 mM NH4Cl added to tissues treated with the blocker,[1]; [7],0 μEq/hr cm^2
same,effect of 10 mM NH4Cl on acid secretion of tissues treated with the blocker (in words),[1]; [8],declined
CCCCNC(=O)NS(=O)(=O)c1ccc(C)cc1 [tolbutamide],effect on resistance (R) of stimulated tissues (in words),[2]; [10],no effect; also recorded: not significantly different from that of control tissues
same,effect on potential difference (PD) of stimulated tissues (in words),[2]; [11],no effect
same,R after 10 mM NH4Cl added to tissues treated with the blocker (in words),[2]; [12],increase in R
same,PD after 10 mM NH4Cl added to tissues treated with the blocker (in words),[2]; [8],increase in PD
same,acid secretion after 10 mM NH4Cl added to tissues treated with the blocker,[1]; [7],0 μEq/hr cm^2
same,effect of 10 mM NH4Cl on acid secretion of tissues treated with the blocker (in words),[1]; [8],abolished
same,effect on stimulated acid secretion (in words),[1]; [9],no effect on stimulated acid secretion; also recorded: no significant decline
